The text below walks through data of patent US8895717B2, “Delivery of siRNA by neutral lipid compositions” (The Board of Regents of the University of Texas System, priority 2005, dated 2014).

d = 2'-deoxy (DNA); r = 2'-OH (RNA)

The subject of data set [1] is HeyA8-MDR cells. Nature of the data set: In vivo therapy with DOPC-FAK siRNA, HeyA8-MDR model. Also on record: species or system nude mice. To be noted: for Incidence (%) / No. Nodules: siRNA in DOPC twice weekly, docetaxel 50 μg weekly. On the procedure: siRNA for in vivo delivery was incorporated into the phospholipid 1,2-dioleoyl-sn-glycero-3-phosphatidylcholine (DOPC). DOPC and siRNA were mixed in the presence of excess tertiary-butanol at a ratio of […], as previously described (Landen et al., 2005). Tween-20 was added to the mixture at a ratio of 1:19. The mixture was vortexed, frozen in an acetone/dry ice bath, and lyophilized. Before in vivo administration, this preparation was hydrated with normal (0.9%) saline at a concentration of 15 μg/ml to achieve the desired dose of 150-200 μl per injection. To estimate the quantity of siRNA not taken up by liposomes free siRNA was separated from liposomes by using filter units with a 30,000 nominal molecular weight limit (Millipore Corp, Billerica, Mass.). The liposomal suspension was added to the filters and centrifuged at 5,000 g for 40 min at room temperature. Fractions were collected, the material trapped in the filter was reconstituted with 0.9% saline, and the amount of siRNA in the collected fraction and eluent were measured by spectrophotometry.
To produce tumors, SKOV3ip1, Hey A8-MDR cells (1×10^6 cells/0.2 ml of HBSS) and Hey A8 cells (2.5×10^5 cells/0.2 ml of HBSS) were injected interperitoneally (i.p.) into the mice. For in vivo injections, cells were trypsinized and centrifuged at 1000 rpm for 7 minutes at 4° C., washed twice with PBS and reconstituted in serum-free Hank's balanced salt solution (HBSS, Life Technologies, Carlsbad, Calif.). Only single-cell suspensions with >95% viability, as determined by trypan blue exclusion, were used for the in vivo injections. Mice (n=10 per group) were monitored for adverse effects of therapy and were sacrificed on day 35 (SKOV3ip1) or day 28 (HeyA8 or HeyA8-MDR) or when any of the mice began to appear moribund. Mouse weight, tumor weight, and tumor distribution were recorded. Tissue specimens were snap frozen for lysate preparation, fixed in formalin for paraffin embedding or frozen on OCT compound (Miles, Inc., Elkhart, Ind.) for frozen slide preparation.
Based on the results of preliminary dose-response studies, a series of three separate therapy studies were initiated using the optimal FAK siRNA dosage. Tumor cells were injected i.p. and 7 days later, the mice were randomly assigned to five treatment groups: empty liposome twice weekly, non-specific control […] siRNA (3 μg) twice weekly, control FAK siRNA (3 μg) twice weekly in combination with 50 μg docetaxel weekly, FAK siRNA twice weekly and FAK siRNA (3 μg) twice weekly in addition to 50 μg docetaxel weekly.
Chemotherapy-resistance is a common clinical problem in the management of ovarian carcinoma. Despite high response rates with initial therapy, most patients develop recurrent tumors that are resistant to taxane and platinum chemotherapy (McGuire et al., 1996). […] Consequently FAK downregulation and its effects on sensitization of resistant tumors to chemotherapy, using the HeyA8-MDR cell line (FIG. 13C) was assessed. Therapy was started 7 days after injection of tumor cells into nude mice according to the 5 groups outlined above.

Data set [2] deals with HeyA8 orthotopic model. Nature of the data set: Angiogenesis (MVD), proliferation (PCNA), apoptosis (TUNEL), VEGF and MMP-9 in harvested tumors. The data set is classed as in vivo, nude mice. Conditions: for endothelial cell apoptosis: CD31 and TUNEL dual localization. The procedure: Expression of PCNA was determined by IHC analysis using paraffin-embedded tumors. Sections (8-μm thick) were deparaffinized in xylene, treated with a graded series of alcohol [100%, 95%, 80% ethanol/double distilled H2O (v/v)], and rehydrated in PBS (pH 7.5). Antigen retrieval was performed by microwave heating for 5 minutes in 0.1 M citrate buffer pH 6.0, followed by blocking of endogenous […] with 3% H2O2 in methanol for 5 min. After PBS wash ×2, slides were blocked with 5% normal horse serum and 1% normal goat serum in PBS for 15 min at room temperature, followed by incubation with primary antibody (anti-PCNA, PC-10, mouse IgG, Dako), in blocking solution overnight at 4° C. After two PBS washes, the appropriate secondary antibody conjugated to horseradish peroxidase, in blocking solution, was added for 1 hour at room temperature. HRP was detected with DAB (Phoenix Biotechnologies, Huntsville, Ala.) substrate for 5 minutes, washed, and counterstained with Gil No. 3 hematoxylin (Sigma) for 20 sec. IHC for CD31 was performed on freshly cut frozen tissue. […] The primary antibody used was anti-CD31 (PECAM-1, rat IgG, Pharmingen). Staining for PCNA and CD31 was conducted on tumors collected at the conclusion of 4 week therapy trials.
To quantify MVD, 10 random 0.159-mm^2 fields at ×100 final magnification were examined for each tumor (1 slide per mouse, 5 slides per group), and the number of microvessels per field were counted. A single microvessel was defined as a discrete cluster or single cell stained positive for CD31 (CD31), and the presence of a lumen was required for scoring as a microvessel. To quantify PCNA expression, the number of positive cells (DAB staining) was counted in 10 random 0.159-mm^2 fields at ×100 magnification. To quantify TUNEL positive cells, the number of green fluorescence positive cells was counted in 10 random 0.01-mm^2 fields at ×400 magnification.
Expression of PCNA was determined by IHC analysis using paraffin-embedded tumors. Sections (8-μm thick) were mounted on positively charged Superfrost slides (Fisher Scientific Co., Houston, Tex.) and dried overnight. Sections were deparaffinized in xylene, treated with a graded series of alcohol [100%, 95%, 80% ethanol/double distilled H2O (v/v)], and rehydrated in PBS (pH 7.5). Antigen was retrieved by placing the slides in water and then boiling them in a microwave on high power for 5 min. Expression of CD31 was determined using fresh frozen tissues that were cut into 4-μm thick sections and mounted on positively charged slides. The slides were stored at −80° C.; sections were fixed in cold acetone for 10 min. and then washed twice with PBS for 3 min each time. A positive reaction was visualized by incubating the slides with stable 3,3 diaminobenzidine for 10-20 min. The sections were rinsed with distilled water, counterstained with Gill's hematoxylin for 1 min and mounted with Universal mount (Research Genetics).
To determine potential mechanisms underlying the efficacy of anti-FAK based therapy, its effects on several biological endpoints were examined, including angiogenesis (MVD), proliferation (PCNA), and apoptosis (TUNEL). Due to growing evidence related to FAK and tumor angiogenesis (Kornberg et al., 2004; Mitra et al., 2005). The inventors evaluated vessel density (FIG. 14B) in the tumors harvested from the studies described above. […]

Take “control siRNA: sense r(UUUUCCGAACGUGUCACGU)dTT, antisense r(ACGUGACACGUUCGGAGAA)dTT, no homology with human mRNA; in vivo in DOPC (sense UUUUCCGAACGUGUCACGUTT; antisense ACGUGACACGUUCGGAGAATT; sugars from the 5' end r19 d2, backbone not given here)”: in data set [1], the “Incidence (%)” value is recorded as 90% and the “No. Nodules” value came to 4.4. Also, the endothelial cell apoptosis entry in data set [2] was “no apotosis seen in endothelial cells”.

For “FAK siRNA: sense r(CCACCUGGGCCAGUAUUAU)d(TT), antisense r(AUAAUACUGGCCCAGGUGG)d(TT); for in vivo delivery incorporated into DOPC (sense CCACCUGGGCCAGUAUUAUTT; antisense AUAAUACUGGCCCAGGUGGTT; sugars from the 5' end r19 d2, backbone not given here)”, in data set [1], the “reduction in tumor growth compared to control” value is reported as “about 44%”, the “Incidence (%)” value was found to be 70% and the “No. Nodules” value is 2.1. The endothelial cell apoptosis entry in data set [2] is given as “significantly increased”. Moreover, in data set [2] (CD31 staining), the “mean MVD compared with empty liposomes” value is recorded as “mean MVD was reduced”. The “VEGF and MMP-9 expression” value in data set [2] (IHC) is “substantially reduced”. Also, the “PCNA expression compared to empty liposome or control siRNA” value in data set [2] (mouse, in vivo) is reported as “Minimal reduction of PCNA expression”.
